# Data reported in ChEMBL document CHEMBL3885861, “Open TG-GATES”.
# Species: Rattus norvegicus
# Test: Open TG-GATES - Regimen: Daily Repeat
# Format: toxicity, organism-based, Sprague-Dawley
# Parameters: regimen Daily Repeat, gender Male, age 6 weeks
# Conditions: in vivo, po, 100 mg/kg, route gavage, dose level Low; for APTT / Bas / Eos / Fbg / Hb / Ht / Lym / MCH / MCHC / MCV / Mono / Neu / PT / Plat / RBC / Ret / WBC: tissue Blood; for KIDNEY_L / KIDNEY_R / KIDNEY_TOTAL: tissue Kidney; for LIVER: tissue Liver; for A/G / ALP / ALT / AST / BUN / CRE / Ca / Cl / DBIL / GLC / IP / K / LDH / Na / PL / RALB / TBIL / TC / TG / TP / gamma-GTP: tissue Plasma
structure (smiles),measurement,setting,value
CN/C(=N/CCSCc1nc[nH]c1C)NC#N [CIMETIDINE],TERMINAL_BW,"72 h, time 3 day",228.3 g
same,APTT,"72 h, time 3 day",18 s
same,Bas,"72 h, time 3 day",0.2%
same,Eos,"72 h, time 3 day",1%
same,Fbg,"72 h, time 3 day",220 mg/dL
same,Hb,"72 h, time 3 day",12.8 g/dL
same,Ht,"72 h, time 3 day",38.6%
same,Lym,"72 h, time 3 day",77.6%
same,MCH,"72 h, time 3 day",21.1 pg
same,MCHC,"72 h, time 3 day",33.2%
same,MCV,"72 h, time 3 day",63.6 fL
same,Mono,"72 h, time 3 day",2.6%
same,Neu,"72 h, time 3 day",17.4%
same,PT,"72 h, time 3 day",12.6 s
same,Plat,"72 h, time 3 day",127.7 x10_4/uL
same,RBC,"72 h, time 3 day",607 x10_4/ul
same,Ret,"72 h, time 3 day",6.9%
same,WBC,"72 h, time 3 day",97.9 x10_2/uL
same,KIDNEY_L,"72 h, time 3 day",1 g
same,KIDNEY_R,"72 h, time 3 day",1 g
same,KIDNEY_TOTAL,"72 h, time 3 day",2 g
same,LIVER,"72 h, time 3 day",10.7 g
same,A/G,"72 h, time 3 day",1.5
same,ALP,"72 h, time 3 day",1125.6 IU/L
same,ALT,"72 h, time 3 day",37 IU/L
same,AST,"72 h, time 3 day",66.4 IU/L
same,BUN,"72 h, time 3 day",14.8 mg/dL
same,CRE,"72 h, time 3 day",0.4 mg/dL
same,Ca,"72 h, time 3 day",10.9 mg/dL
same,Cl,"72 h, time 3 day",103.2 meq/L
same,DBIL,"72 h, time 3 day",0.1 mg/dL
same,GLC,"72 h, time 3 day",195.6 mg/dL
same,IP,"72 h, time 3 day",7.1 mg/dL
same,K,"72 h, time 3 day",4.2 meq/L
same,LDH,"72 h, time 3 day",137.8 IU/L
same,Na,"72 h, time 3 day",140.8 meq/L
same,PL,"72 h, time 3 day",155.8 mg/dL
same,RALB,"72 h, time 3 day",3.4 g/dL
same,TBIL,"72 h, time 3 day",0.2 mg/dL
same,TC,"72 h, time 3 day",78.6 mg/dL
same,TG,"72 h, time 3 day",109.8 mg/dL
same,TP,"72 h, time 3 day",5.6 g/dL
same,gamma-GTP,"72 h, time 3 day",1.2 IU/L
same,TERMINAL_BW,"[…], time 7 day",260 g
same,TERMINAL_BW,"[…], time 14 day",308.9 g
same,TERMINAL_BW,"[…], time 28 day",402.8 g
same,APTT,"[…], time 7 day",18.3 s
same,Bas,"[…], time 7 day",0.2%
same,Eos,"[…], time 7 day",0.8%
same,Fbg,"[…], time 7 day",227.6 mg/dL
same,Hb,"[…], time 7 day",13.5 g/dL
same,Ht,"[…], time 7 day",40.3%
same,Lym,"[…], time 7 day",81.6%
same,MCH,"[…], time 7 day",20.8 pg
same,MCHC,"[…], time 7 day",33.4%
same,MCV,"[…], time 7 day",62.2 fL
same,Mono,"[…], time 7 day",2%
same,Neu,"[…], time 7 day",14.6%
same,PT,"[…], time 7 day",12.2 s
same,Plat,"[…], time 7 day",126 x10_4/uL
same,RBC,"[…], time 7 day",648.2 x10_4/ul
same,Ret,"[…], time 7 day",5.4%
same,WBC,"[…], time 7 day",111.1 x10_2/uL
same,APTT,"[…], time 14 day",19.3 s
same,Bas,"[…], time 14 day",0%
same,Eos,"[…], time 14 day",1%
same,Fbg,"[…], time 14 day",219.2 mg/dL
same,Hb,"[…], time 14 day",14.4 g/dL
same,Ht,"[…], time 14 day",43.9%
same,Lym,"[…], time 14 day",83.8%
same,MCH,"[…], time 14 day",19.5 pg
same,MCHC,"[…], time 14 day",32.8%
same,MCV,"[…], time 14 day",59.5 fL
same,Mono,"[…], time 14 day",2.2%
same,Neu,"[…], time 14 day",13%
same,PT,"[…], time 14 day",12.7 s
same,Plat,"[…], time 14 day",120.2 x10_4/uL
same,RBC,"[…], time 14 day",737.8 x10_4/ul
same,Ret,"[…], time 14 day",3.9%
same,WBC,"[…], time 14 day",93.7 x10_2/uL
same,APTT,"[…], time 28 day",19.7 s
same,Bas,"[…], time 28 day",0.2%
same,Eos,"[…], time 28 day",1.2%
same,Fbg,"[…], time 28 day",217.4 mg/dL
same,Hb,"[…], time 28 day",14.6 g/dL
same,Ht,"[…], time 28 day",42.3%
same,Lym,"[…], time 28 day",79.4%
same,MCH,"[…], time 28 day",19.2 pg
same,MCHC,"[…], time 28 day",34.5%
same,MCV,"[…], time 28 day",55.8 fL
same,Mono,"[…], time 28 day",2.8%
same,Neu,"[…], time 28 day",15.6%
same,PT,"[…], time 28 day",12.9 s
same,Plat,"[…], time 28 day",114 x10_4/uL
same,RBC,"[…], time 28 day",758.2 x10_4/ul
same,Ret,"[…], time 28 day",2.8%
same,WBC,"[…], time 28 day",137.9 x10_2/uL
same,KIDNEY_L,"[…], time 7 day",1.1 g
same,KIDNEY_R,"[…], time 7 day",1.1 g
same,KIDNEY_TOTAL,"[…], time 7 day",2.2 g
same,KIDNEY_L,"[…], time 14 day",1.2 g
same,KIDNEY_R,"[…], time 14 day",1.3 g
same,KIDNEY_TOTAL,"[…], time 14 day",2.5 g
same,KIDNEY_L,"[…], time 28 day",1.4 g
same,KIDNEY_R,"[…], time 28 day",1.4 g
same,KIDNEY_TOTAL,"[…], time 28 day",2.8 g
same,LIVER,"[…], time 7 day",13 g
same,LIVER,"[…], time 14 day",13.9 g
same,LIVER,"[…], time 28 day",17.6 g
same,A/G,"[…], time 7 day",1.5
same,ALP,"[…], time 7 day",831 IU/L
same,ALT,"[…], time 7 day",34.8 IU/L
same,AST,"[…], time 7 day",64.2 IU/L
same,BUN,"[…], time 7 day",16.6 mg/dL
same,CRE,"[…], time 7 day",0.4 mg/dL
same,Ca,"[…], time 7 day",10.7 mg/dL
same,Cl,"[…], time 7 day",102 meq/L
same,DBIL,"[…], time 7 day",0.096 mg/dL
same,GLC,"[…], time 7 day",252.8 mg/dL
same,IP,"[…], time 7 day",7.8 mg/dL
same,K,"[…], time 7 day",4 meq/L
same,LDH,"[…], time 7 day",155 IU/L
same,Na,"[…], time 7 day",139.6 meq/L
same,PL,"[…], time 7 day",161 mg/dL
same,RALB,"[…], time 7 day",3.3 g/dL
same,TBIL,"[…], time 7 day",0.1 mg/dL
same,TC,"[…], time 7 day",78.8 mg/dL
same,TG,"[…], time 7 day",121 mg/dL
same,TP,"[…], time 7 day",5.6 g/dL
same,gamma-GTP,"[…], time 7 day",1.2 IU/L
same,A/G,"[…], time 14 day",1.4
same,ALP,"[…], time 14 day",969.6 IU/L
same,ALT,"[…], time 14 day",42 IU/L
same,AST,"[…], time 14 day",74.8 IU/L
same,BUN,"[…], time 14 day",17.6 mg/dL
same,CRE,"[…], time 14 day",0.4 mg/dL
same,Ca,"[…], time 14 day",10.5 mg/dL
same,Cl,"[…], time 14 day",102 meq/L
same,DBIL,"[…], time 14 day",0.1 mg/dL
same,GLC,"[…], time 14 day",205.2 mg/dL
same,IP,"[…], time 14 day",7.1 mg/dL
same,K,"[…], time 14 day",4 meq/L
same,LDH,"[…], time 14 day",210.8 IU/L
same,Na,"[…], time 14 day",141.4 meq/L
same,PL,"[…], time 14 day",142.2 mg/dL
same,RALB,"[…], time 14 day",3.4 g/dL
same,TBIL,"[…], time 14 day",0.2 mg/dL
same,TC,"[…], time 14 day",62.8 mg/dL
same,TG,"[…], time 14 day",137.8 mg/dL
same,TP,"[…], time 14 day",5.9 g/dL
same,gamma-GTP,"[…], time 14 day",0.8 IU/L
same,A/G,"[…], time 28 day",1.4
same,ALP,"[…], time 28 day",672 IU/L
same,ALT,"[…], time 28 day",35.4 IU/L
same,AST,"[…], time 28 day",66.4 IU/L
same,BUN,"[…], time 28 day",18.6 mg/dL
same,CRE,"[…], time 28 day",0.6 mg/dL
same,Ca,"[…], time 28 day",10.3 mg/dL
same,Cl,"[…], time 28 day",101.6 meq/L
same,DBIL,"[…], time 28 day",0.1 mg/dL
same,GLC,"[…], time 28 day",264.2 mg/dL
same,IP,"[…], time 28 day",6.9 mg/dL
same,K,"[…], time 28 day",3.5 meq/L
same,LDH,"[…], time 28 day",186 IU/L
same,Na,"[…], time 28 day",140.4 meq/L
same,PL,"[…], time 28 day",150.8 mg/dL
same,RALB,"[…], time 28 day",3.5 g/dL
same,TBIL,"[…], time 28 day",0.2 mg/dL
same,TC,"[…], time 28 day",70.2 mg/dL
same,TG,"[…], time 28 day",167.4 mg/dL
same,TP,"[…], time 28 day",6 g/dL
same,gamma-GTP,"[…], time 28 day",1.2 IU/L
